The values that follow are results of earlier work, collected in patent US7422793B2, “Non-toxic corrosion-protection rinses and seals based on rare earth elements” (University of Dayton, priority 2002, dated 2008).

In brackets after ≈: the same amount, converted by molar mass.

The conditions of the first data set: fluoride preparative agents; at or near 25° C. and at or near pH 7; cited from earlier work.
As to `F[Si-2](F)(F)(F)(F)F.[Li+].[Li+]` [Lithium hexafluorosilicate], the “Solubility in Water” value is reported as 3.8 × 10^0 mole/L.
In the case of `F[Si-2](F)(F)(F)(F)F.[Mg+2]` [Magnesium hexafluorosilicate], the “Solubility in Water” value is listed as 3.9 × 10^0 mole/L.
With `F[Si-2](F)(F)(F)(F)F.[K+].[K+]` [Potassium hexafluorosilicate], the “Solubility in Water” value was 0.0055 mol/L.

The same data set, now with this note: oxidizer sources; at or near 25° C. and at or near pH 7; cited from earlier work.
Regarding `OO` [Hydrogen peroxide], the “Solubility in Water” value is recorded as 60 wt. %.

The same data set, now with this note: pH 7; cited from earlier work.
Consider `[F][Sb-]([F])([F])([F])([F])[F].[NH4+]` [Ammonium fluoroantimonate], for which the “Solubility in Water” value is on record as 4.7 × 10^0 mole/L.
In the case of `F[Si-2](F)(F)(F)(F)F.[NH4+].[NH4+]` [Ammonium hexafluorosilicate], the “Solubility in Water” value was 1.04 × 10^0 mole/L.
Consider `[F][Sb]([F])([F])([F])[F]` [Antimony (V) fluoride], for which the “Solubility in Water” value is reported as 1 × 10^0 mole/L.
Turning to `O=[As](=O)O[As](=O)=O` [Arsenic pentoxide], the “Solubility in Water” value is on record as 6.5 × 10^0 mole/L.
With `[O-][Cl+3]([O-])([O-])[O-].[O]=[Bi+]` [Bismuthyl perchlorate], the “Solubility in Water” value is 0.1 mol/L.
Take `[Ca+2].[O-][Cl+2]([O-])[O-].[O-][Cl+2]([O-])[O-]` [Calcium chlorate]: the “Solubility in Water” value is reported as 7.4 × 10^0 mole/L.
Regarding `F[Si-2](F)(F)(F)(F)F.[Ca+2]` [Calcium hexafluorosilicate], the “Solubility in Water” value was 0.5 mol/L.
On to `[Ca+2].[O-][Cl+3]([O-])([O-])[O-].[O-][Cl+3]([O-])([O-])[O-]` [Calcium perchlorate], for which the “Solubility in Water” value is recorded as 7.9 × 10^0 mole/L.
As for `[Ce+3].[O-][Cl+3]([O-])([O-])[O-].[O-][Cl+3]([O-])([O-])[O-].[O-][Cl+3]([O-])([O-])[O-]` [Cerium (III) perchlorate], the “Solubility in Water” value is on record as 2.0 × 10^0 mole/L.
On to `[Ce+4].[O-][Cl+3]([O-])([O-])[O-].[O-][Cl+3]([O-])([O-])[O-].[O-][Cl+3]([O-])([O-])[O-].[O-][Cl+3]([O-])([O-])[O-]` [Cerium (IV) perchlorate], for which the “Solubility in Water” value is 1.0 × 10^0 mole/L.
As for `[Cs+].[O-][Cl+2]([O-])[O-]` [Cesium chlorate], the “Solubility in Water” value was 0.29 mol/L.
For the molecule `[Cs+].[Cs+].[F][Nb-2]([F])([F])([F])([F])([F])[F]` [Cesium heptafluoroniobate], the “Solubility in Water” value was 0.3 mol/L.
As for `[Cs+].[Cs+].[F][Ta-2]([F])([F])([F])([F])([F])[F]` [Cesium heptafluorotantalate], the “Solubility in Water” value is 0.3 mol/L.
As to `[Cs+].[Cs+].[F][Ge-2]([F])([F])([F])([F])[F]` [Cesium hexafluorogermanate], the “Solubility in Water” value is […].
Turning to `[Cs+].[Cs+].[F][Hf-2]([F])([F])([F])([F])[F]` [Cesium hexafluorohafnate], the “Solubility in Water” value was 0.17 mol/L.
`[Cs+].[Cs+].[F][Sn-2]([F])([F])([F])([F])[F]` [Cesium hexafluorostannate]: the “Solubility in Water” value was 0.079 mol/L.
On to `[Cs+].[Cs+].[F][Ti-2]([F])([F])([F])([F])[F]` [Cesium hexafluorotitanate], for which the “Solubility in Water” value was 0.055 mol/L.
For the molecule `[Cs+].[Cs+].[F][Zr-2]([F])([F])([F])([F])[F]` [Cesium hexafluorozirconate], the “Solubility in Water” value was 0.112 mol/L.
`[Cs+].[Cs+].[O]=[Mo](=[O])([O-])[O-]` [Cesium molybdate]: the “Solubility in Water” value is reported as 4.8 × 10^0 mole/L.
As to `[Cs+].[O-][Cl+3]([O-])([O-])[O-]` [Cesium perchlorate], the “Solubility in Water” value was 0.086 mol/L.
As to `[Cs+].[O-][I+3]([O-])([O-])[O-]` [Cesium periodate], the “Solubility in Water” value was 0.066 mol/L.
`[Cs+].[Cs+].[O]=[Sn]([O-])[O-]` [Cesium stannate]: the “Solubility in Water” value is 1 × 10^0 mole/L.
With `O=[Te](=O)([O-])[O-].[Cs+].[Cs+]` [Cesium tellurate], the “Solubility in Water” value was 0.01 mol/L.
On to `[Cs+].[O]=[V](=[O])[O-]` [Cesium vanadate], for which the “Solubility in Water” value was 0.5 mol/L.
As for `CC[N+](CC)(CC)CC.[O-][Cl+3]([O-])([O-])[O-]` [Et4N^+ perchlorate], the “Solubility in Water” value was 0.5 mol/L.
In the case of `[O-][I+2]([O-])O[I+2]([O-])[O-]` [Iodine pentoxide], the “Solubility in Water” value was 5.6 × 10^0 mole/L.
On to `[Li+].[O-][Cl+2]([O-])[O-]` [Lithium chlorate], for which the “Solubility in Water” value was 55 mol/L.
Regarding `[F][Nb-2]([F])([F])([F])([F])([F])[F].[Li+].[Li+]` [Lithium heptafluoroniobate], the “Solubility in Water” value was 0.5 mol/L.
For the molecule `[F][Ta-2]([F])([F])([F])([F])([F])[F].[Li+].[Li+]` [Lithium heptafluorotantalate], the “Solubility in Water” value is 0.5 mol/L.
Take `[F][Sb-]([F])([F])([F])([F])[F].[Li+]` [Lithium hexafluoroantimonate]: the “Solubility in Water” value is on record as 1 × 10^0 mole/L.
In the case of `[F][Ge-2]([F])([F])([F])([F])[F].[Li+].[Li+]` [Lithium hexafluorogermanate], the “Solubility in Water” value was […].
Consider `[F][Hf-2]([F])([F])([F])([F])[F].[Li+].[Li+]` [Lithium hexafluorohafnate], for which the “Solubility in Water” value is 0.1 mol/L.
Consider `[F][Sn-2]([F])([F])([F])([F])[F].[Li+].[Li+]` [Lithium hexafluorostannate], for which the “Solubility in Water” value was 0.01 mol/L.
For the molecule `[F][Ti-2]([F])([F])([F])([F])[F].[Li+].[Li+]` [Lithium hexafluorotitanate], the “Solubility in Water” value is 0.05 mol/L.
As to `[F-].[F-].[F][Zr]([F])([F])[F].[Li+].[Li+]` [Lithium hexafluorozirconate], the “Solubility in Water” value was 0.08 mol/L.
As to `[Li+].[Li+].[O]=[Mo](=[O])([O-])[O-]` [Lithium molybdate], the “Solubility in Water” value was 10 mol/L.
On to `[Li+].[Nb+5].[O-2].[O-2].[O-2]` [Lithium niobate], for which the “Solubility in Water” value is 0.1 mol/L.
For `O=N[O-].[Li+]` [Lithium nitrite], the “Solubility in Water” value is 28 mol/L.
Consider `[Li+].[O-][Cl+3]([O-])([O-])[O-]` [Lithium perchlorate], for which the “Solubility in Water” value was 5.6 × 10^0 mole/L.
With `[Li+].[Li+].[O-][O-]` [Lithium peroxide], the “Solubility in Water” value is on record as 1 × 10^0 mole/L.
For `[Li+].[Li+].[O]=[Sn]([O-])[O-]` [Lithium stannate], the “Solubility in Water” value was 5 × 10^0 mole/L.
As to `[Li+].[O]=[Ta](=[O])[O-]` [Lithium tantalate], the “Solubility in Water” value was 0.01 mol/L.
As for `O=[Te](=O)([O-])[O-].[Li+].[Li+]` [Lithium tellurate], the “Solubility in Water” value is on record as 1 × 10^0 mole/L.
Consider `F[B-](F)(F)F.[Li+]` [Lithium tetrafluoroborate], for which the “Solubility in Water” value is 5 × 10^0 mole/L.
Regarding `[Mg+2].[O-][Cl+2]([O-])[O-].[O-][Cl+2]([O-])[O-]` [Magnesium chlorate], the “Solubility in Water” value is listed as 4.3 × 10^0 mole/L.
`[Mg+2].[O]=[Mo](=[O])([O-])[O-]` [Magnesium molybdate]: the “Solubility in Water” value is 0.74 mol/L.
Consider `O=C([O-])c1ccccc1C(=O)O[O-].[Mg+2]` [Magnesium monoperoxyphthalate], for which the “Solubility in Water” value is 10 mol/L.
With `O=N[O-].O=N[O-].[Mg+2]` [Magnesium nitrite], the “Solubility in Water” value was 1 × 10^0 mole/L.
In the case of `[Mg+2].[O-][Cl+3]([O-])([O-])[O-].[O-][Cl+3]([O-])([O-])[O-]` [Magnesium perchlorate], the “Solubility in Water” value is 4.4 × 10^0 mole/L.
As for `[O]=[Mo](=[O])([OH])[OH]` [Molybdic acid], the “Solubility in Water” value was 0.0074 mol/L.
In the case of `O=C(O)c1ccccc1C(=O)OO` [Monoperoxyphthalic acid], the “Solubility in Water” value is 10 mol/L (≈ 1820 mg/mL).
Turning to `[O-][Cl+3]([O-])([O-])O` [Perchloric acid], the “Solubility in Water” value is 75 wt. %.
`[K+].[O]=[Al][O-]` [Potassium aluminate]: the “Solubility in Water” value is on record as 1 × 10^0 mole/L.
In the case of `[F][Sb-]([F])([F])([F])([F])[F].[K+]` [Potassium fluoroantimonate], the “Solubility in Water” value was 3.7 × 10^0 mole/L.
`[F][Ge-2]([F])([F])([F])([F])[F].[K+].[K+]` [Potassium fluorogermanate]: the “Solubility in Water” value was […].
Regarding `[F][Nb-2]([F])([F])([F])([F])([F])[F].[K+].[K+]` [Potassium heptafluoroniobate], the “Solubility in Water” value is 0.26 mol/L.
`[F][Ta-2]([F])([F])([F])([F])([F])[F].[K+].[K+]` [Potassium heptafluorotantalate]: the “Solubility in Water” value is 0.3 mol/L.
As to `[F-].[F-].[F][Hf]([F])([F])[F].[K+].[K+]` [Potassium hexafluorohafnate], the “Solubility in Water” value is 0.13 mol/L.
Consider `[F-].[F-].[F-].[F-].[F-].[F-].[K+].[K+].[Sn+4]` [Potassium hexafluorostannate], for which the “Solubility in Water” value was 0.128 mol/L.
Consider `[F][Ti-2]([F])([F])([F])([F])[F].[K+].[K+]` [Potassium hexafluorotitanate], for which the “Solubility in Water” value is 0.06 mol/L.
For `[F][Zr-2]([F])([F])([F])([F])[F].[K+].[K+]` [Potassium hexafluorozirconate], the “Solubility in Water” value is 0.0812 mol/L.
Take `[K+].[K+].[O]=[Mo](=[O])([O-])[O-]` [Potassium molybdate]: the “Solubility in Water” value was 775 mol/L.
For `O=N[O-].[K+]` [Potassium nitrite], the “Solubility in Water” value was 35 mol/L.
For the molecule `[K+].[O-][I+3]([O-])([O-])[O-]` [Potassium periodate], the “Solubility in Water” value is 0.029 mol/L.
